Data on one compound can be found in ChEMBL document CHEMBL5321290, “Discovery of the Diphenyl 6-Oxo-1,6-dihydropyridazine-3-carboxylate/carboxamide Analogue J27 for the Treatment of Acute Lung Injury and Sepsis by Targeting JNK2 and Inhibiting the JNK2-NF-κB/MAPK Pathway” (J Med Chem, 2023).

Data set [1] addresses T1, Inhibitor of nuclear factor kappa-B kinase subunit beta (Homo sapiens) (UniProt O14920).
T1 sequence (whole entry): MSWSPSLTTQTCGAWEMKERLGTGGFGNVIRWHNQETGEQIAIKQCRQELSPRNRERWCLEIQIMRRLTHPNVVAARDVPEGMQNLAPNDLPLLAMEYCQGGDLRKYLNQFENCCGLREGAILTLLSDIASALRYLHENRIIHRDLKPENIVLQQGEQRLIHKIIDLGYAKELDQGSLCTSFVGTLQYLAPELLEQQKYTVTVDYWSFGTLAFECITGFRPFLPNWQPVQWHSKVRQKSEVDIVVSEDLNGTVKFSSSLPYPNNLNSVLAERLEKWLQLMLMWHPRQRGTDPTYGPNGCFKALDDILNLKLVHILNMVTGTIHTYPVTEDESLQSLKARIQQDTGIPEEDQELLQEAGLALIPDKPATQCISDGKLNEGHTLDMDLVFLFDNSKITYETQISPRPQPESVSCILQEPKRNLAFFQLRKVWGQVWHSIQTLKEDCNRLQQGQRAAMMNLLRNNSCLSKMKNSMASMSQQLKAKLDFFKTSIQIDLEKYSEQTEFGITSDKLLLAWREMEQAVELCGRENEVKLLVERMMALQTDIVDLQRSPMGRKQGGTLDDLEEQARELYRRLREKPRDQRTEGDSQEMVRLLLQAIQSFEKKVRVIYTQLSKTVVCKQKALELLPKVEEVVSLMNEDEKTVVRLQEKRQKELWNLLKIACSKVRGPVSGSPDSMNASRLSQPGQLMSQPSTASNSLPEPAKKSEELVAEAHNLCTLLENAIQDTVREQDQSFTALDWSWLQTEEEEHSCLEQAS
In words: Inhibition of IKKbeta (unknown origin) assessed as inhibition rate at 10 uM by SPR analysis relative to control. Background: Surface plasmon resonance follows binding to a sensor surface in real time, without labels.

The nature of data set [2]: Subacute toxicity in ICR mouse assessed as pathological change in lung at 500 to 100 mg/kg, IG measured for 10 days by hematoxylin and eosin dye based light microscopy. In kind it is organism-based. To be noted: in vivo, po, 240 h, dose 500-100 mg/kg, time 10 day.
In data set [3] the test system is J774.A1. Nature of the data set: Antiinflammatory activity against mouse J774A.1 cells assessed as inhibition of LPS-stimulated TNFalpha mRNA expression pretreated for 2 hrs followed by stimulated with LPS by RT-qPCR analysis. To be noted: dose 2.5-10 µM. The class given is functional, cell-based.
Data set [4] concerns J774.A1. Nature of the data set: Antiinflammatory activity against mouse J774A.1 cells assessed as inhibition of LPS-stimulated TNFalpha release measured after 30 mins by ELISA. In kind it is functional, cell-based. To be noted: J774.A1, 0.5 h. (In general: ELISA stands for enzyme-linked immunosorbent assay.)
The nature of data set [5]: Subacute toxicity in ICR mouse assessed as mortality at 500 to 100 mg/kg, IG measured for 10 days. As to conditions: in vivo, po, 240 h, dose 500-100 mg/kg, time 10 day. In kind it is organism-based.
Data set [6] can be described thus: AUC (0 to t) in Sprague-Dawley rat at 10 mg/kg, iv measured upto 24 hrs by UPLC-MS/MS analysis. To be noted: in vivo. The class given is ADME, organism-based. On the set-up: dose 10 mg/kg, time < 24 hrs, route iv.

What is called inhibition is the relative decrease from the control value, in per cent. What is called IC50 is the concentration that gives 50% inhibition. As to `COc1cc2nccc(Oc3ccc(NC(=O)c4nn(-c5ccc(C)cc5)c(=O)cc4C)cc3)c2cc1OC`, in data set [1], the inhibition is -3.77%. Moreover, the Activity entry is “Non-Toxic” in data set [2], “Dose-Dependent Effect” in the data set with J774.A1 [3] and “Non-Toxic” in data set [5]. In addition, the IC50 with J774.A1 [4] turned out to be 5.3 µM. Further, in data set [6], the AUCt was determined as 2995.673 ng·h/mL.
